Reference: publication PMC7699745, “The Search for New Anticonvulsants in a Group of (2,5-Dioxopyrrolidin-1-yl)(phenyl)Acetamides with Hybrid Structure—Synthesis and In Vivo/In Vitro Studies” (International Journal of Molecular Sciences, 2020)
Several values for one entry are separate records, joined by “and”; a condition that tells them apart may be missing. Identical values can stand only once. Like-named read-outs stand apart in the source and are kept apart here.

Experiments:
MES seizures, mice = experiment: Maximal electroshock (MES) seizure test; type: in vivo; conditions: Mus musculus, ip; for responders at 100 mg/kg: 0.5 h, i.p.; for ED50: at TPE (0.5 h; LTG 1.0 h), 95% confidence intervals in parentheses
[1] = system: formalin-induced nociceptive response, mice; experiment: Formalin test of tonic pain; type: in vivo; conditions: for ED50: Mus musculus, ip, i.p. 30 min before test
Method: AEDs are also commonly used in the treatment of neuropathic pain and other central pain conditions. Therefore, with an aim of further pharmacological characterization of compounds described herein, we decided to study their antinociceptive properties in the in vivo assays. […] At first, both aforementioned compounds were tested in the formalin-induced tonic pain model, which is recognized as a valuable screening tool. In this test, the injection of formalin into the plantar surface of the mouse paw produces specific behaviors like paw lifting, flinching, and licking. […] Moreover, it has been reported that formalin induces pathological changes that resemble those observed in nerve injury and neuropathic pain [24]. Thus, this test has been successfully used to assess the analgesic efficacy of a variety of compounds such as opioids, nonsteroidal anti-inflammatory drugs (NSAIDs), corticosteroids, and N-methyl-D-aspartate (NMDA) receptor antagonists, as well as AEDs such as carbamazepine, topiramate, or gabapentin [26, 27].
As mentioned above, we investigated the analgesic properties of two of the most promising and interesting compounds: 4 and 30.
The experimental groups consisted of 6–12 adult male Albino Swiss mice (CD-1, 18–25 g). Each animal was tested only once. Immediately after the assay, the animals were sacrificed by cervical dislocation. Behavioral measurements were observed by trained observers. The in vivo antinociceptive assays were in accordance with Polish regulations and European Union Directive of 22 September 2010 (2010/63/EU). All procedures were carried out according to the rules of the International Council on Laboratory Animal Science (ICLAS) and were approved by the Local Ethical Committee in Cracow, Poland (approval No 104/2015, 111/2016, and 179/2017). The tested substances were suspended in 1% aqueous solution of Tween-80 and were injected i.p. 30 min prior to the test. Control group animals (negative control) were administered with an appropriate amount of vehicle (Tween-80, 1% aqueous solution, i.p.) 30 min prior to the test.
The experimental in vivo procedures were previously reported for the formalin test; compounds 4 and 30 were tested in three doses—40, 80, 120 mg/kg (4), and 20, 40, 80 mg/kg (30). […] The in vivo procedure for the model of capsaicin-induced nociception was previously reported; the animals were pretreated with vehicle (10 mL/kg, negative control) and the dose–response of investigated compounds was evaluated at 40, 80, 120 mg/kg (4), and 20, 40, 80 mg/kg (30). […]
Data are presented as means ± standard error of the mean (SEM). […] Statistically significant differences between groups were calculated using one-way analysis of variance (ANOVA) and the post hoc Dunnett’s multiple comparison test or two-way analysis of variance (ANOVA). […]

Cav1.2 channel = molecular target: T1, Cav1.2 channel (Rattus norvegicus, UniProt P22002); experiment: Radioligand binding, Cav1.2 channel; parameters: inhibition: dose or concentration left out as unconfirmed; conditions: for inhibition: rat cerebral cortex, read-out: % Inhibition of Control Specific Binding, Cav1.2 Channel (Antagonist Radioligand)
T1 construct: tissue Eurofins (Poitiers, France), contract assay; host or cells: rat cerebral cortex (own knowledge of the vendor's assay)
Method: (§1) Taking into consideration the structural similarities of molecules described in the current manuscript with their chemical prototypes AS-1 and DK-1, the binding studies toward aforementioned molecular targets were performed commercially for several active substances from each subseries (3, 4, 21, 24, 25, 27, 29, and 30). Furthermore, we also tested two other and well-known targets for AEDs, namely, the Cav2.2 (N-type) calcium channel and gamma-aminobutyric acid (GABA)-A receptor. With the aim of excluding potentially dangerous proarrhythmic properties for each compound, their interaction with the potassium (hERG) channel was also tested.
(§2) Binding studies were carried out commercially in Eurofines Laboratories (Poitiers, France). The functional assays were performed in Eurofins Panlabs Discovery Services Taiwan, Ltd. (New Taipei City, Taiwan). All procedures are described elsewhere (for details, see Table S4 in Supplementary Materials).
(§3) Binding studies were carried out commercially in Eurofines Laboratories (Poitiers, France). The
(§4) functional assays were performed in Eurofins Panlabs Discovery Services Taiwan, Ltd. (New Taipei
(§5) City, Taiwan). All procedures are described elsewhere (Table S4).
(§6) Table S4. In vitro binding and functional assays.
(§7) GABA-A receptor (α1,β2,γ2)
(§8) Potassium channel (hERG) 14
(§9) Cav1.2 (h) calcium ion channel cell based antagonist calcium flux assay 16,17

Cav2.2 channel = molecular target: T2, Cav2.2 channel (Rattus norvegicus, UniProt Q02294); experiment: Radioligand binding, Cav2.2 channel; parameters: dose or concentration left out as unconfirmed; conditions: rat cerebral cortex; read-out: % Inhibition of Control Specific Binding, Cav2.2 Channel (Antagonist Radioligand)
T2 construct: tissue Eurofins (Poitiers, France), contract assay; host or cells: rat cerebral cortex (own knowledge of the vendor's assay)
Method: as §1, §2, §3, §4, §5, §6, §7, §8, §9

[2] = molecular target: T3, GABA-A receptor (α1,β2,γ2) (Homo sapiens, UniProt P14867+P47870); experiment: Radioligand binding, GABA-A receptor; parameters: dose or concentration left out as unconfirmed; conditions: rat cerebral cortex; read-out: % Inhibition of Control Specific Binding, GABA-A Receptor (α1,β2,γ2) (Agonist Radioligand)
T3 construct: Eurofins (Poitiers, France), contract assay
Method: as §1, §2, §3, §4, §5, §6, §7, §8, §9

Potassium channel (hERG) = molecular target: T4, Potassium channel (hERG) (Homo sapiens, UniProt Q12809); experiment: Binding, potassium channel (hERG); conditions: 100 µM; human recombinant (HEK-293 cells)
T4 construct: Eurofins (Poitiers, France), contract assay
Method: as §1, §2, §3, §4, §5, §6, §7, §8, §9

[3] = Metabolic stability in human liver microsomes; type: in vitro ADME; conditions: 120 min incubation with HLMs
Excerpt: Human liver microsomes (HLMs) were used for metabolic stability determination. Moreover, the most probable phase I reactions and structures of metabolites were proposed according to ion fragment analyses with the in silico support of MetaSite 6.0.1 software. […] On the other hand, an excellent metabolic stability of compound 24 was observed. Less than 4% of this derivative was converted into double-hydroxylated metabolite M1 (Figures S3, S4, and S7, Supplementary Materials). Finally, two monohydroxylated metabolites (M1, M2) were found in the reaction mixture with HLMs and 30, and around 17% of this compound was metabolized (Figures S5–S7, Supplementary Materials).
These assays were performed on human liver microsomes (HLMs), purchased from Sigma-Aldrich (St. Louis, MO, USA), according to [14].

[4] = Rotarod test for acute neurological toxicity; conditions: mouse, in vivo, ip
[5] = system: motor coordination of mice; experiment: Rotarod test for acute neurological toxicity; conditions: for Rotarod test, number of mice / number of mice tested: i.p., 100 mg/kg, 0.5 h
[6] = read-out: MES test, number of mice protected / number of mice tested (converted)
[7] = phase II 15–30 min, read-out: ED50, formalin test phase II

T1 sequence (P22002 whole entry): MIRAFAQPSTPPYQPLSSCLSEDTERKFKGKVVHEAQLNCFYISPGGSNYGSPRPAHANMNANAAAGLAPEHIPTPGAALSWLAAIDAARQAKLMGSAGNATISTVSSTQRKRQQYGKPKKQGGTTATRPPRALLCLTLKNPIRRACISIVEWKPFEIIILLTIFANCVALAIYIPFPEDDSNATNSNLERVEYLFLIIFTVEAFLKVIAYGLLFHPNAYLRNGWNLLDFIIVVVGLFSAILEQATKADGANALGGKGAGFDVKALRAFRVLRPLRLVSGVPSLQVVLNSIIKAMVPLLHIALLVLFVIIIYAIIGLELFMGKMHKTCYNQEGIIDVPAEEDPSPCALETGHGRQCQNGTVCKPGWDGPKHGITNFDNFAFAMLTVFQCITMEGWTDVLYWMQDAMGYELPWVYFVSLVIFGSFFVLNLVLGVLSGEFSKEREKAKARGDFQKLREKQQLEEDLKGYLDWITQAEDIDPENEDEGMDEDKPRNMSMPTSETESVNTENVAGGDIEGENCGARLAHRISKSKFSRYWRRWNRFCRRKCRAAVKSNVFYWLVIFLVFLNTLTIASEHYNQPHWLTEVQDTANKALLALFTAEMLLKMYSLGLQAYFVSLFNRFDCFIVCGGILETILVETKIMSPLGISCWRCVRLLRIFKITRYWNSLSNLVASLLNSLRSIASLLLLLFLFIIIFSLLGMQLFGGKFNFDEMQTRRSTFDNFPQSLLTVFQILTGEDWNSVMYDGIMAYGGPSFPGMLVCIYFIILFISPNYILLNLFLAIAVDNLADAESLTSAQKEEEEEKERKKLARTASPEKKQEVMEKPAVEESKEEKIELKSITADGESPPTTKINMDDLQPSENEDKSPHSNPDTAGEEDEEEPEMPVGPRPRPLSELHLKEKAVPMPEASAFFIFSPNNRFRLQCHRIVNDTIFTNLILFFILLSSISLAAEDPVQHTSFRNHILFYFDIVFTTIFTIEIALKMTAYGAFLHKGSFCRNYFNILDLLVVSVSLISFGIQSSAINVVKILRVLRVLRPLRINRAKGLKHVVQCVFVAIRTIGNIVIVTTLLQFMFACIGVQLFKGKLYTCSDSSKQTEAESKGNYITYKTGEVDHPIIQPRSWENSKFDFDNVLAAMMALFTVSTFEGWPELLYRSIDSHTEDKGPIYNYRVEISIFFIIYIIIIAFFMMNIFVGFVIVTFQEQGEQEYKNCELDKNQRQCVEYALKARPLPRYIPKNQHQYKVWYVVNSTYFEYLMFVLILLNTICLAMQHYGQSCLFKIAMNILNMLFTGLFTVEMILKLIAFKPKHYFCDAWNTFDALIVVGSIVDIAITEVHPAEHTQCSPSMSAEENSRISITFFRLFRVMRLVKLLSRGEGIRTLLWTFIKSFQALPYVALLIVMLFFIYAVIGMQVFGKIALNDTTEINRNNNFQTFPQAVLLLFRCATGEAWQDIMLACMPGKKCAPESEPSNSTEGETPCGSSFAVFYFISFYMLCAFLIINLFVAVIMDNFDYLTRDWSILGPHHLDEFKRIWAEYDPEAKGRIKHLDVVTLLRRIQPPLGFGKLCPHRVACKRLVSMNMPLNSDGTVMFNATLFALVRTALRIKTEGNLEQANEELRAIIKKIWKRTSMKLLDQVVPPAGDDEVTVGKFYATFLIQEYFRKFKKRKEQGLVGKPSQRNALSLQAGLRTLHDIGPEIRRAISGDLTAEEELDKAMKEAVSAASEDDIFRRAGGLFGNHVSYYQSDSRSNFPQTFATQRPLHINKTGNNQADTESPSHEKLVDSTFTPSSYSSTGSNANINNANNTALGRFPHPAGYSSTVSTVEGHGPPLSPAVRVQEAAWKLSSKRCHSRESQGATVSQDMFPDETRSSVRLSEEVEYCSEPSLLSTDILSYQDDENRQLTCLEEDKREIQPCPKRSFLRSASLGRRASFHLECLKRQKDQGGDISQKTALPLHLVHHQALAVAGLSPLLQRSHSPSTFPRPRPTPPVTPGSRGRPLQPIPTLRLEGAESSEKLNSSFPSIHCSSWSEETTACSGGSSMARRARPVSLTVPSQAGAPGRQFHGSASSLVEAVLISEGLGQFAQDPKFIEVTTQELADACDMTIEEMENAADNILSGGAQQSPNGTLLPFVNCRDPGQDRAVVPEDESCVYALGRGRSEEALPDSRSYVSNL
T1 sequence (P54287 whole entry partner): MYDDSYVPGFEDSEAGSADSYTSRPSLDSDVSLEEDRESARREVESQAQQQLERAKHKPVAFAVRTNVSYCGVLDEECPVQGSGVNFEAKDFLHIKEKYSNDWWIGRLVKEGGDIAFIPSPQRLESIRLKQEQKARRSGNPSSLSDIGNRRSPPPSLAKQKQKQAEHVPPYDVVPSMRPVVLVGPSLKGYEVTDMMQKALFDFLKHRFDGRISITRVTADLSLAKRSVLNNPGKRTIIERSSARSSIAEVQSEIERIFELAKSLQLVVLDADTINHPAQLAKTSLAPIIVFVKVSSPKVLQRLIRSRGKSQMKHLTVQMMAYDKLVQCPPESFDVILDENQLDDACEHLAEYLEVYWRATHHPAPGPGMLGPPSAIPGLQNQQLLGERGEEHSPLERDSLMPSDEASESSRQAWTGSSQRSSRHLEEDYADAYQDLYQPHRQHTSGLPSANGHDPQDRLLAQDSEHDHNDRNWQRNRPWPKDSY
T1 sequence (P54290 25-944 partner limits assumed): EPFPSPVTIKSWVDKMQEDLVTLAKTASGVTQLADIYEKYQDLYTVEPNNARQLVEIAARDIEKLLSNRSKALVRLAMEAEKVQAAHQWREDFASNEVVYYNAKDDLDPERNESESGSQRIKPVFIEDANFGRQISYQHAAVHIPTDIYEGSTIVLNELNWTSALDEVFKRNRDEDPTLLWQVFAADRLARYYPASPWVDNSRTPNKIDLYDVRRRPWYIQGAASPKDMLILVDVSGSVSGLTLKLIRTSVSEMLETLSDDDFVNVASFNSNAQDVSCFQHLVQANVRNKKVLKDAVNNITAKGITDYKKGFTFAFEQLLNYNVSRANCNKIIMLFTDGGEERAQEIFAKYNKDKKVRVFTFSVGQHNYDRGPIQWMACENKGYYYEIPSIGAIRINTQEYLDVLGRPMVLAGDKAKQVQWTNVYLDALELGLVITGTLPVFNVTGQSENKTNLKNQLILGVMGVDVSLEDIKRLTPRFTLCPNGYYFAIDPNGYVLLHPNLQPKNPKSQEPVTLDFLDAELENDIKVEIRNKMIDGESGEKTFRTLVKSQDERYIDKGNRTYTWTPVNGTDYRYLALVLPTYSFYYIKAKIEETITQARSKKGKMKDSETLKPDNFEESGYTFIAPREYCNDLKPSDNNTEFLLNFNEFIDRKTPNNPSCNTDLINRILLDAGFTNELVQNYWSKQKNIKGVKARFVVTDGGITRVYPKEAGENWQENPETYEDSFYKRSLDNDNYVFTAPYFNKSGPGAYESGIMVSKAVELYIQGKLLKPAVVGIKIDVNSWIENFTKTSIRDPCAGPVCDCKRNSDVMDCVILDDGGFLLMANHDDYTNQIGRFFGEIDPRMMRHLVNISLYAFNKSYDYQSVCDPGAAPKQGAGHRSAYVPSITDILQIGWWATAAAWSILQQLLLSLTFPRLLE
T1 sequence (P54290 945-1091 partner limits assumed): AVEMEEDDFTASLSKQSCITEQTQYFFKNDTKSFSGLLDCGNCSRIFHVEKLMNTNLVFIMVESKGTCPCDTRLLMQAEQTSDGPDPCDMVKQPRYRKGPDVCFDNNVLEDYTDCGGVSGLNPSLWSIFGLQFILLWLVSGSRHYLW
T3 sequence (P14867 28-456): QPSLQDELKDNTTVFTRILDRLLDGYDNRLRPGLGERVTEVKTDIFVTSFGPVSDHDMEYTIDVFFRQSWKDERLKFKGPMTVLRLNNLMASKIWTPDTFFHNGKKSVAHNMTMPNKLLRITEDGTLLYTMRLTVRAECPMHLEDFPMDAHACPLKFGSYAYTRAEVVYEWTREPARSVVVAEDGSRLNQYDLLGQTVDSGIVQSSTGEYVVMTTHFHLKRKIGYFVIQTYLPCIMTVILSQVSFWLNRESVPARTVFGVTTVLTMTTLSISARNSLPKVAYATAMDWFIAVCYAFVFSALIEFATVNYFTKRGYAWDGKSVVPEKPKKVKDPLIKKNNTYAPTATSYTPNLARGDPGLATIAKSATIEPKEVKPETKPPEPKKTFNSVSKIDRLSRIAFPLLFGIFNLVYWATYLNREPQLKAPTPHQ
T3 sequence (P47870 25-512 limits assumed): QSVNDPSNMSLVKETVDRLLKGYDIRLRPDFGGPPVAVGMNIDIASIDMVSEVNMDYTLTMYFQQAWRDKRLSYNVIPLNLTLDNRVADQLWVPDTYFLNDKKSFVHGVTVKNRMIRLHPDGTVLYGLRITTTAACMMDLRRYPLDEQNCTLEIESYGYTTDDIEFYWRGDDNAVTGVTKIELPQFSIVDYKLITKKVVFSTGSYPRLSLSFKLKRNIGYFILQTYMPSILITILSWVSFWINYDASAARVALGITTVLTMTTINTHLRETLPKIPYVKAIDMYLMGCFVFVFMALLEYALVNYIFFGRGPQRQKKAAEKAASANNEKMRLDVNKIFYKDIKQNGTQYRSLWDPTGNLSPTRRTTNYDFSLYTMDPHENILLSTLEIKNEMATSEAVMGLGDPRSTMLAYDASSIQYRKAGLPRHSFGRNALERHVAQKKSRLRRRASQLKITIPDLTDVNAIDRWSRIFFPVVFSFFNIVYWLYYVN
T3 sequence (P18507 40-475 partner): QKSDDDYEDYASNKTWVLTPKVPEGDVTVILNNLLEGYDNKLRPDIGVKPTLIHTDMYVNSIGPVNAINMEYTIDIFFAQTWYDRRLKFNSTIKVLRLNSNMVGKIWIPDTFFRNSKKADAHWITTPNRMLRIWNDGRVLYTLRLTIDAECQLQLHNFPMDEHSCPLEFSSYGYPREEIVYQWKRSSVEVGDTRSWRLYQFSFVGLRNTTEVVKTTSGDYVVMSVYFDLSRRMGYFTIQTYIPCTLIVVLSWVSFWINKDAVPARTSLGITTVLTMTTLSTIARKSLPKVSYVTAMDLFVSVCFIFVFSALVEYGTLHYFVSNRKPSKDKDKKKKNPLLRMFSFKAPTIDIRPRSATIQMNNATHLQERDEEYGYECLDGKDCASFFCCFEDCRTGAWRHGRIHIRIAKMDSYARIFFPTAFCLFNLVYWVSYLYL

SMILES	responders at 100 mg/kg (MES seizures, mice; [6]) [%]	ED50 (MES seizures, mice) [mg/kg]	ED50 [1, 7] [mg/kg]	attenuation of nociceptive response, formalin test first phase ([1]; i.p., doses 40, 80, 120 mg/kg)	inhibition (Cav1.2 channel) [%]	inhibition (Cav2.2 channel) [%]	inhibition [2] [%]	% Inhibition of Control Specific Binding, Potassium Channel (hERG) (Potassium channel (hERG)) [%]	parent compound remained in the reaction mixture [3]	melting point [°C]	TD50 at 0.5 h [4] [mg/kg]	impairment of motor coordination of mice ([5]; doses as high as 300 mg/kg)	Rotarod test, number of mice / number of mice tested [5]	responders at 100 mg/kg (MES seizures, mice; groups of four, read-out: protection in the MES test) [%]	ED50 ([1]; phase I 0–5 min, read-out: ED50, formalin test phase I) [mg/kg]	binding to voltage-gated calcium channels Cav1.2 (Cav1.2 channel; concentration of 10 µM)	compound converted into metabolites / metabolized [3]
O=C(Nc1ccccc1F)C(c1ccccc1)N1C(=O)CCC1=O (stereo not shown) [Compound 4, 2-(2,5-Dioxopyrrolidin-1-yl)-N-(2-fluorophenyl)-2-phenylacetamide]	100	73.2	98.9	statistically significant only at the highest dose of 120 mg/kg	5	1.1	2.8	2.3	71.44% and 71.4%	106.6 to 107.1	> 300	did not impair motor coordination	0/4				
O=C(NCCc1cccc(OC(F)(F)F)c1)C(c1ccccc1)N1C(=O)CCC1=O (stereo not shown) [Compound 30, 2-(2,5-Dioxopyrrolidin-1-yl)-2-phenyl-N-(3-(trifluoromethoxy)phenethyl)acetamide]	100	45.6	24.8		47.6	4	0.3	1.7	83.39%	113.3 to 114.2	162		0/4	100	21.5	moderate binding	around 17%
